# Results from patent US20260102383A1, “LPAR1 Inhibitors” (AbbVie Inc., priority 2024, published 2026).
# Target: T1, human LPAR1 (Homo sapiens, UniProt Q92633)
# T1 construct: host or cells: TangoEDG2-bla U2OS cells
# Test: Arrestin assay (Arrestin Reporter EDG2-bla U2OS), inhibition of LPA-stimulated signal
# Format: cell-based
# Conditions: TangoEDG2-bla U2OS cells expressing human LPAR1; 0.25 μM LPA; read-out: Arrestin Reporter EDG2-bla U2OS Human Merged IC50
# Description: The inhibitory activity of compounds 15, 62, 77, 84 and 169 against LPAR1 was measured using an Arrestin assay in U2OS cells expressing human LPAR1.
# FreeStyle media was warmed in a 37° C. water bath. Cryo-preserved vial(s) of TangoEDG2-bla U2OS cells were rapidly thawed in a 37° C. water bath. The thawed cells were added to FreeStyle media and cells were pelleted at 300×g for 5 minutes. The supernatant was aspirated, and cells were resuspended in FreeStyle media. Cell density was adjusted to 0.25×10^6 cells/mL. Cells (1×10^4 in 40 μL) were added to each well of Greiner 384 well black cell plate(s). Cell plate(s) were placed in a humidified 37° C./5% CO2 incubator for 18-20 hours. Dilutions of test compound were prepared at 6× final concentration; 12-point, 3-fold dilutions using HH Buffer (1×HBSS plus 20 mM HEPES). The 6× test compound was then added to the cell plate(s) at 10 μL/well. The final concentration ranged from 10 μM to 0.00006 μM. Cell plate(s) were incubated in a humidified 37° C./5% CO2 incubator for 1 hour. During the incubation, 6×LPA was prepared at 1.5 μM in 0.1% BSA HH Buffer. After the 1-hour incubation of test compound with cells, the LPA was added to the cell plate(s) at 10 μL/well (final LPA concentration of 0.25 μM). Cell plate(s) were returned to a humidified 37° C./5% CO2 incubator for 3 hours. The Development solution was made up per the LiveBLAzerFRET B/G kit protocol. The Development solution was added to the cell plate(s) at 10 μL/well. Cell plates were incubated in the dark at room temperature for 2 hours. Plate(s) were read on an Envision Plate Reader (Perkin Elmer) to read fluorescence; excitation at 409 nm with emission at 460 nm and 530 nm. Raw Data for analysis is the ratio of emission at 460 nm divided by emission 530 nm. The formula used to determine % Inhibition is as follows (1−(Raw Data−Low Average)/(High Average−Low Average))*100. Percent Inhibition was plotted to determine IC50 value with GraphPad Prism 9.5.0 software using Variable slope 4-parameter curve fit analysis.
# Additional compounds of the present disclosure were synthesized in a manner similar to the compounds described above and understood by a person of ordinary skill in the art. The inhibitory activity of the compounds of the present disclosure against LPAR1 was measured using the above-referenced Arrestin Assay protocol.
# T1 sequence (Q92633 whole entry): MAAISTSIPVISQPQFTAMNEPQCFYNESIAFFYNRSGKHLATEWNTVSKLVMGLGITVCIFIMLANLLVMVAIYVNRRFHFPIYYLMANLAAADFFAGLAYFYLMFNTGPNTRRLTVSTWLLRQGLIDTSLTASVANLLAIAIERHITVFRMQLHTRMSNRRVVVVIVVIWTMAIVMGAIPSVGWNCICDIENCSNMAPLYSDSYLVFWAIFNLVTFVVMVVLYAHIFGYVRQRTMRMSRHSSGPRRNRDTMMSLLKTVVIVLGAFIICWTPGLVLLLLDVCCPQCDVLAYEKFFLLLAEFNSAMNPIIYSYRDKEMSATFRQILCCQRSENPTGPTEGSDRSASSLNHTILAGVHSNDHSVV
row,IC50,SMILES
1,87.3 nM,"CC(=O)N1CCC(CN2CCC(C(=O)Nc3ccc(Cl)cc3OC(F)F)(n3nccc3C(C)C)CC2)(C(=O)O)CC1 [Compound 5, 1-acetyl-4-[[4-[[4-chloro-2-(difluoromethoxy)phenyl]carbamoyl]-4-(5-isopropylpyrazol-1-yl)-1-piperidyl]methyl]piperidine-4-carboxylic acid]"
2,24.7 nM,"CCOC(=O)N1CCC(CN2CCC(C(=O)Nc3ccc(Cl)cc3OC(F)F)(n3nccc3C(C)C)CC2)(C(=O)O)CC1 [Compound 6, 4-[[4-[[4-chloro-2-(difluoromethoxy)phenyl]carbamoyl]-4-(5-isopropylpyrazol-1-yl)-1-piperidyl]methyl]-1-ethoxycarbonyl-piperidine-4-carboxylic acid]"
3,50.8 nM,"C=CC(=O)N1CCC(CN2CCC(C(=O)Nc3ccc(Cl)cc3OC(F)F)(n3nccc3C(C)C)CC2)(C(=O)O)CC1 [Compound 7, 4-[[4-[[4-chloro-2-(difluoromethoxy)phenyl]carbamoyl]-4-(5-isopropylpyrazol-1-yl)-1-piperidyl]methyl]-1-prop-2-enoyl-piperidine-4-carboxylic acid]"
4,3.31 nM,"CC(C)c1ccnn1C1(C(=O)Nc2ccc(Cl)cc2OC(F)F)CCN(CC2(C(=O)O)CCN(C(=O)OCc3ccccc3)CC2)CC1 [Compound 8, 1-benzyloxycarbonyl-4-[[4-[[4-chloro-2-(difluoromethoxy)phenyl]carbamoyl]-4-(5-isopropylpyrazol-1-yl)-1-piperidyl]methyl]piperidine-4-carboxylic acid]"
5,128 nM,"COC(=O)CC(=O)N1CCC(CN2CCC(C(=O)Nc3ccc(Cl)cc3OC(F)F)(n3nccc3C(C)C)CC2)(C(=O)O)CC1 [Compound 9, 4-[[4-[[4-chloro-2-(difluoromethoxy)phenyl]carbamoyl]-4-(5-isopropylpyrazol-1-yl)-1-piperidyl]methyl]-1-(3-methoxy-3-oxo-propanoyl)piperidine-4-carboxylic acid]"
6,52.6 nM,"CC(C)c1ccnn1C1(C(=O)Nc2ccc(Cl)cc2OC(F)F)CCN(CC(C(=O)O)C2CCOCC2)CC1 (centres unmarked) [Compound 11, 3-[4-[[4-chloro-2-(difluoromethoxy)phenyl]carbamoyl]-4-(5-isopropylpyrazol-1-yl)-1-piperidyl]-2-tetrahydropyran-4-yl-propanoic acid]"
7,11.4 nM,"CC(C)c1ccnn1C1(C(=O)Nc2ccc(Cl)cc2OC(F)F)CCN(CC2(C(=O)O)CCCC2)CC1 [Compound 12, 1-[[4-[[4-chloro-2-(difluoromethoxy)phenyl]carbamoyl]-4-(5-isopropylpyrazol-1-yl)-1-piperidyl]methyl] cyclopentanecarboxylic acid]"
8,11.2 nM,"CC(C)c1ccnn1C1(C(=O)Nc2ccc(Cl)cc2OC(F)F)CCN(CC2(C(=O)O)CCCO2)CC1 (centres unmarked) [Compound 13, 2-[[4-[[4-chloro-2-(difluoromethoxy)phenyl]carbamoyl]-4-(5-isopropylpyrazol-1-yl)-1-piperidyl]methyl] tetrahydrofuran-2-carboxylic acid]"
9,29.8 nM,"CC(C)c1ccnn1C1(C(=O)Nc2ccc(Cl)cc2OC(F)F)CCN(CC2(C(=O)O)CCOC2)CC1 (centres unmarked) [Compound 16, 3-[[4-[[4-chloro-2-(difluoromethoxy)phenyl]carbamoyl]-4-(5-isopropylpyrazol-1-yl)-1-piperidyl]methyl] tetrahydrofuran-3-carboxylic acid]"
10,14.5 nM,"CC(C)c1ccnn1C1(C(=O)Nc2ccc(Cl)cc2OC(F)F)CCN(CC(C(=O)O)c2cccnc2)CC1 (centres unmarked) [Compound 17, 3-[4-[[4-chloro-2-(difluoromethoxy)phenyl]carbamoyl]-4-(5-isopropylpyrazol-1-yl)-1-piperidyl]-2-(3-pyridyl)propanoic acid]"
11,11 nM,"CC(C)c1ccnn1C1(C(=O)Nc2ccc(Cl)cc2OC(F)F)CCN(CC2(C(=O)O)CCN(c3cnccn3)CC2)CC1 [Compound 18, 4-[[4-[[4-chloro-2-(difluoromethoxy)phenyl]carbamoyl]-4-(5-isopropylpyrazol-1-yl)-1-piperidyl]methyl]-1-pyrazin-2-yl-piperidine-4-carboxylic acid]"
12,9.56 nM,"COc1ccc(C(CN2CCC(C(=O)Nc3ccc(Cl)cc3OC(F)F)(n3nccc3C(C)C)CC2)C(=O)O)cc1 (centres unmarked) [Compound 19, 3-[4-[[4-chloro-2-(difluoromethoxy)phenyl]carbamoyl]-4-(5-isopropylpyrazol-1-yl)-1-piperidyl]-2-(4-methoxyphenyl) propanoic acid]"
13,28.8 nM,"CC(C)c1ccnn1C1(C(=O)Nc2ccc(Cl)cc2OC(F)F)CCN(C[C@@]2(C(=O)O)CCCO2)CC1 [Compound 20, (2R)-2-[[4-[[4-chloro-2-(difluoromethoxy)phenyl]carbamoyl]-4-(5-isopropylpyrazol-1-yl)-1-piperidyl]methyl] tetrahydrofuran-2-carboxylic acid]"
14,14.6 nM,"CC(C)c1ccnn1C1(C(=O)Nc2ccc(Cl)cc2OC(F)F)CCN(C[C@]2(C(=O)O)CCCO2)CC1 [Compound 21, (2S)-2-[[4-[[4-chloro-2-(difluoromethoxy)phenyl]carbamoyl]-4-(5-isopropylpyrazol-1-yl)-1-piperidyl]methyl] tetrabydrofuran-2-carboxylic acid]"
15,10.1 nM,"COc1cccc(C(CN2CCC(C(=O)Nc3ccc(Cl)cc3OC(F)F)(n3nccc3C(C)C)CC2)C(=O)O)c1 (centres unmarked) [Compound 22, 3-[4-[[4-chloro-2-(difluoromethoxy)phenyl]carbamoyl]-4-(5-isopropylpyrazol-1-yl)-1-piperidyl]-2-(3-methoxyphenyl)propanoic acid]"
16,24.7 nM,"CC(C)c1ccnn1C1(C(=O)Nc2ccc(Cl)cc2OC(F)F)CCN(C[C@@]2(C(=O)O)CCOC2)CC1 [Compound 24, (3S)-3-[[4-[[4-chloro-2-(difluoromethoxy)phenyl]carbamoyl]-4-(5-isopropylpyrazol-1-yl)-1-piperidyl]methyl] tetrabydrofuran-3-carboxylic acid]"
17,28 nM,"CC(C)c1ccnn1C1(C(=O)Nc2ccc(Cl)cc2OC(F)F)CCN(C[C@H](C(=O)O)c2cccnc2)CC1 [Compound 25, (2R)-3-[4-[[4-chloro-2-(difluoromethoxy)phenyl]carbamoyl]-4-(5-isopropylpyrazol-1-yl)-1-piperidyl]-2-(3-pyridyl)propanoic acid]"
18,24.5 nM,"CC(C)c1ccnn1C1(C(=O)Nc2ccc(Cl)cc2OC(F)F)CCN(C[C@@H](C(=O)O)c2cccnc2)CC1 [Compound 26, (2S)-3-[4-[[4-chloro-2-(difluoromethoxy)phenyl]carbamoyl]-4-(5-isopropylpyrazol-1-yl)-1-piperidyl]-2-(3-pyridyl)propanoic acid]"

row,SMILES,IC50
1,"CC(C)c1ccnn1C1(C(=O)Nc2ccc(Cl)cc2OC(F)F)CCN(CC2(C(=O)O)CCN(C(=O)OC(C)(C)C)CC2)CC1 [Compound 4, 1-tert-butoxycarbonyl-4-[[4-[[4-chloro-2-(difluoromethoxy)phenyl]carbamoyl]-4-(5-isopropylpyrazol-1-yl)-1-piperidyl]methyl] piperidine-4-carboxylic acid]",22.8 nM
2,"CC(C)c1ccnn1C1(C(=O)Nc2ccc(Cl)cc2OC(F)F)CCN(CC2(C(=O)O)CCN(C(=O)Oc3ccc(F)cc3)CC2)CC1 [Compound 10, 4-[[4-[[4-chloro-2-(difluoromethoxy)phenyl]carbamoyl]-4-(5-isopropylpyrazol-1-yl)-1-piperidyl]methyl]-1-(4-fluorophenoxy)carbonyl-piperidine-4-carboxylic acid]",7.53 nM
